Patent US12577231B2, “Androgen receptor PROTACS” (GlaxoSmithKline Intellectual Property Development Limited, priority 2023, dated 2026)

Target: T1, Androgen Receptor dual T878A/L702H mutant protein (Homo sapiens, UniProt P10275, L702H/T878A)
T1 construct: host or cells: MDA-PCa-2b
T1 sequence (P10275 1-920 L702H/T878A): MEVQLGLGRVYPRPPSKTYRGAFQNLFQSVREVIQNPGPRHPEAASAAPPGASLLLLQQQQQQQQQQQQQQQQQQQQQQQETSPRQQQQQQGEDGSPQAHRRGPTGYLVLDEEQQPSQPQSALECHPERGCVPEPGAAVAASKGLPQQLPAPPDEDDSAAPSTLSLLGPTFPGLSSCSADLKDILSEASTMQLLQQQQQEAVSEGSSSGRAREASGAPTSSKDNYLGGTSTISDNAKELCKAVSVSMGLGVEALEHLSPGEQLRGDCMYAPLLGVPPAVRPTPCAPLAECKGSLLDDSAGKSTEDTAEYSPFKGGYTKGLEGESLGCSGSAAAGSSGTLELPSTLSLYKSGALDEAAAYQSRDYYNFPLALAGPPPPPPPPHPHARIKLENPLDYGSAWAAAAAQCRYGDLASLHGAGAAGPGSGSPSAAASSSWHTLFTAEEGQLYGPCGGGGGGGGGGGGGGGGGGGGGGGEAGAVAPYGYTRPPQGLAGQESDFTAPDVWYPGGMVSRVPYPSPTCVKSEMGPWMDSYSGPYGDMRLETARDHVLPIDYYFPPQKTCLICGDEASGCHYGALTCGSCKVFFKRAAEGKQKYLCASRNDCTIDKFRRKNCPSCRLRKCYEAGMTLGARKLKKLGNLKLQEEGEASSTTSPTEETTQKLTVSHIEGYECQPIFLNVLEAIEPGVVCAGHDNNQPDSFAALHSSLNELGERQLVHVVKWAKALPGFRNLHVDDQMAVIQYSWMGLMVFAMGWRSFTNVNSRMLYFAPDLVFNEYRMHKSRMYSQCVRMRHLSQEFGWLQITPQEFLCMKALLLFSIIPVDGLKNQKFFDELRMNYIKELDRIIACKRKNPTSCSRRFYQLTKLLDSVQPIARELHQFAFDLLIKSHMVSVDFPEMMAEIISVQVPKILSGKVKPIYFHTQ
Assay: Dual Mutant (T878A/L702H) Androgen Receptor Degradation Assay (HTRF, MDA-PCa-2b cells)
Assay type: cell-based
Conditions: 18 h, 18 h incubation, read-out: mean asymptote max
Outline: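 PROTACs tested as 11-point, 3-fold dilutions on 10,000 cells for 18 h at 37 °C. Remaining AR read by HTRF (665/620 nm ratio) after lysis, normalised to DMSO-treated cells (0%) and cell-free medium (100%). Relative DC50 from 4-parameter fit inflection, absolute DC50 interpolated at 50% degradation; Dmax is maximum observed degradation.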

For COc1c(C#N)ccc(O[C@H]2C(C)(C)[C@H](NC(=O)c3ccc(N4CCC(CN5CCC(n6ncc7c(N8CCC(=O)NC8=O)cccc76)CC5)CC4)c(F)c3)C2(C)C)c1C [Example 5, N-((1r,3r)-3-(4-Cyano-3-methoxy-2-methylphenoxy)-2,2,4,4-tetramethylcyclobutyl)-4-(4-((4-(4-(2,4-dioxotetrahydropyrimidin-1(2H)-yl)-1H-indazol-1-yl)piperidin-1-yl)methyl)piperidin-1-yl)-3-fluorobenzamide], which Dmax is on record?
The Dmax was ≥ 50%.

Which Dmax does the source give for CC1(C)[C@H](NC(=O)c2ccc(N3CCC(CN4CCC(n5ncc6c(N7CCC(=O)NC7=O)c(F)ccc65)CC4)CC3)c(F)c2)C(C)(C)[C@H]1Oc1ccc(C#N)c(Cl)c1 [Example 13, N-((1r,3r)-3-(3-Chloro-4-cyanophenoxy)-2,2,4,4-tetramethylcyclobutyl)-4-(4-((4-(4-(2,4-dioxotetrahydropyrimidin-1(2H)-yl)-5-fluoro-1H-indazol-1-yl)piperidin-1-yl)methyl)piperidin-1-yl)-3-fluorobenzamide] here?
Its Dmax is ≥ 50%.

Which Dmax does the source give for CC1(C)[C@H](NC(=O)c2ccc(N3CCC(CN4CCC(n5ncc6c(N7CCC(=O)NC7=O)c(F)ccc65)CC4)CC3)c(F)c2)C(C)(C)[C@H]1Oc1ccc(C#N)c2ncccc12 [Example 50, N-((1r,3r)-3-((8-Cyanoquinolin-5-yl)oxy)-2,2,4,4-tetramethylcyclobutyl)-4-(4-((4-(4-(2,4-dioxotetrahydropyrimidin-1(2H)-yl)-5-fluoro-1H-indazol-1-yl)piperidin-1-yl)methyl)piperidin-1-yl)-3-fluorobenzamide] here?
The Dmax was ≥ 50%.

CC1(C)[C@H](NC(=O)c2ccc(N3CC[C@@H](CN4CCC(n5ncc6c(N7CCC(=O)NC7=O)cccc65)CC4)C3)c(F)c2)C(C)(C)[C@H]1Oc1ccc(C#N)c2ncccc12 [Example 33, N-((1r,3S)-3-((8-Cyanoquinolin-5-yl)oxy)-2,2,4,4-tetramethylcyclobutyl)-4-((S)-3-((4-(4-(2,4-dioxotetrahydropyrimidin-1(2H)-yl)-1H-indazol-1-yl)piperidin-1-yl)methyl)pyrrolidin-1-yl)-3-fluorobenzamide] was tested. Which Dmax did it give?
The Dmax was ≥ 50%.

How did the Dmax turn out when CC1(C)[C@H](NC(=O)c2ccc(N3CCC(CN4CC[C@H](n5ncc6c(N7CCC(=O)NC7=O)cccc65)[C@H](F)C4)CC3)c(F)c2)C(C)(C)[C@H]1Oc1ccc(C#N)c2ncccc12 [Example 46, N-((1r,3r)-3-((8-Cyanoquinolin-5-yl)oxy)-2,2,4,4-tetramethylcyclobutyl)-4-(4-(((3R,4S)-4-(4-(2,4-dioxotetrahydropyrimidin-1(2H)-yl)-1H-indazol-1-yl)-3-fluoropiperidin-1-yl)methyl)piperidin-1-yl)-3-fluorobenzamide] was run?
The Dmax was ≥ 50%.

Which Dmax does the source give for CC1(C)[C@H](NC(=O)c2ccc(N3CCC(CN4CCC(n5ncc6c(N7CCC(=O)NC7=O)cccc65)CC4)CC3)c(Cl)c2)C(C)(C)[C@H]1Oc1ccc(C#N)c2ncccc12 [Example 44, 3-Chloro-N-((1r,3r)-3-((8-cyanoquinolin-5-yl)oxy)-2,2,4,4-tetramethylcyclobutyl)-4-(4-((4-(4-(2,4-dioxotetrahydropyrimidin-1(2H)-yl)-1H-indazol-1-yl)piperidin-1-yl)methyl)piperidin-1-yl)benzamide] here?
The Dmax was ≥ 50%.

With CC1(C)[C@H](NC(=O)c2ccc(N3CCC(CN4CCC(n5ncc6c(N7CCC(=O)NC7=O)cccc65)CC4)CC3)c(F)c2)C(C)(C)[C@H]1Oc1cnc(C#N)c(Cl)c1 [Example 3, N-((1r,3r)-3-((5-Chloro-6-cyanopyridin-3-yl)oxy)-2,2,4,4-tetramethylcyclobutyl)-4-(4-((4-(4-(2,4-dioxotetrahydropyrimidin-1(2H)-yl)-1H-indazol-1-yl)piperidin-1-yl)methyl)piperidin-1-yl)-3-fluorobenzamide] as the molecule, how does the Dmax read?
The Dmax was ≥ 50%.

Which Dmax does the source give for CC1(C)[C@H](NC(=O)c2ccc(N3CCC(CN4CCC(n5ccc6c(N7CCC(=O)NC7=O)cc(F)cc65)CC4)CC3)c(F)c2)C(C)(C)[C@H]1Oc1ccc(C#N)c2ncccc12 [Example 32, N-((1r,3r)-3-((8-Cyanoquinolin-5-yl)oxy)-2,2,4,4-tetramethylcyclobutyl)-4-(4-((4-(4-(2,4-dioxotetrahydropyrimidin-1(2H)-yl)-6-fluoro-1H-indol-1-yl)piperidin-1-yl)methyl)piperidin-1-yl)-3-fluorobenzamide] here?
The Dmax was ≥ 50%.

CC1(C)[C@H](NC(=O)c2ccc(N3CCC(CN4CCC(n5ccc6c(N7CCC(=O)NC7=O)ncnc65)CC4)CC3)c(F)c2)C(C)(C)[C@H]1Oc1ccc(C#N)c2ncccc12 [Example 47, N-((1r,3r)-3-((8-Cyanoquinolin-5-yl)oxy)-2,2,4,4-tetramethylcyclobutyl)-4-(4-((4-(4-(2,4-dioxotetrahydropyrimidin-1(2H)-yl)-7H-pyrrolo[2,3-d]pyrimidin-7-yl)piperidin-1-yl)methyl)piperidin-1-yl)-3-fluorobenzamide] was tested. Which Dmax did it give?
The Dmax was ≥ 50%.

How did the Dmax turn out when CC1(C)[C@H](NC(=O)c2ccc(N3CCC(CN4CCC(n5ccc6c(N7CCC(=O)NC7=O)cccc65)CC4)CC3)cc2)C(C)(C)[C@H]1Oc1ccc(C#N)c2ncccc12 [Example 43, N-((1r,3r)-3-((8-Cyanoquinolin-5-yl)oxy)-2,2,4,4-tetramethylcyclobutyl)-4-(4-((4-(4-(2,4-dioxotetrahydropyrimidin-1(2H)-yl)-1H-indol-1-yl)piperidin-1-yl)methyl)piperidin-1-yl)benzamide] was run?
The Dmax was ≥ 50%.

Which Dmax does the source give for CC1(C)[C@H](NC(=O)c2ccc(N3CCC(CN4CC[C@@H](n5ncc6c(N7CCC(=O)NC7=O)cccc65)C4)CC3)c(F)c2)C(C)(C)[C@H]1Oc1ccc(C#N)c2ncccc12 [Example 36, N-((1r,3r)-3-((8-Cyanoquinolin-5-yl)oxy)-2,2,4,4-tetramethylcyclobutyl)-4-(4-(((R)-3-(4-(2,4-dioxotetrahydropyrimidin-1(2H)-yl)-1H-indazol-1-yl)pyrrolidin-1-yl)methyl)piperidin-1-yl)-3-fluorobenzamide] here?
Its Dmax is 41%.

For CC1(C)[C@H](NC(=O)c2ccc(N3CCC(CN4CCC(n5ccc6c(N7CCC(=O)NC7=O)c(F)ccc65)CC4)CC3)c(F)c2)C(C)(C)[C@H]1Oc1ccc(C#N)c2ncccc12 [Example 51, N-((1r,3r)-3-((8-Cyanoquinolin-5-yl)oxy)-2,2,4,4-tetramethylcyclobutyl)-4-(4-((4-(4-(2,4-dioxotetrahydropyrimidin-1(2H)-yl)-5-fluoro-1H-indol-1-yl)piperidin-1-yl)methyl)piperidin-1-yl)-3-fluorobenzamide], which Dmax is on record?
The Dmax was ≥ 50%.

How did the Dmax turn out when CC1(C)[C@H](NC(=O)c2ccc(N3CCC4(CC3)CC(N3CCC(n5ncc6c(N7CCC(=O)NC7=O)cccc65)CC3)C4)c(F)c2)C(C)(C)[C@H]1Oc1ccc(C#N)c2ncccc12 [Example 49, N-((1r,3r)-3-((8-Cyanoquinolin-5-yl)oxy)-2,2,4,4-tetramethylcyclobutyl)-4-(2-(4-(4-(2,4-dioxotetrahydropyrimidin-1(2H)-yl)-1H-indazol-1-yl)piperidin-1-yl)-7-azaspiro[3.5]nonan-7-yl)-3-fluorobenzamide] was run?
Its Dmax is ≥ 50%.

With COc1cc(O[C@H]2C(C)(C)[C@H](NC(=O)c3ccc(N4CCC(CN5CCC(n6ncc7c(N8CCC(=O)NC8=O)cccc76)CC5)CC4)cc3)C2(C)C)ccc1C#N [Example 15, N-((1r,3r)-3-(4-Cyano-3-methoxyphenoxy)-2,2,4,4-tetramethylcyclobutyl)-4-(4-((4-(4-(2,4-dioxotetrahydropyrimidin-1(2H)-yl)-1H-indazol-1-yl)piperidin-1-yl)methyl)piperidin-1-yl)benzamide] as the molecule, how does the Dmax read?
Its Dmax is ≥ 50%.

How did the Dmax turn out when CC1(C)[C@H](NC(=O)c2ccc(N3CCC(O)(CN4CCC(n5ncc6c(N7CCC(=O)NC7=O)cccc65)CC4)CC3)c(F)c2)C(C)(C)[C@H]1Oc1ccc(C#N)c2ncccc12 [Example 48, N-((1r,3r)-3-((8-Cyanoquinolin-5-yl)oxy)-2,2,4,4-tetramethylcyclobutyl)-4-(4-((4-(4-(2,4-dioxotetrahydropyrimidin-1(2H)-yl)-1H-indazol-1-yl)piperidin-1-yl)methyl)-4-hydroxypiperidin-1-yl)-3-fluorobenzamide] was run?
Its Dmax is ≥ 50%.

How did the Dmax turn out when CC1(C)[C@H](NC(=O)c2ccc(N3CCC(CN4CCC(n5ncc6c(N7CCC(=O)NC7=O)nccc65)CC4)CC3)c(F)c2)C(C)(C)[C@H]1Oc1ccc(C#N)c2ncccc12 [Example 39, N-((1r,3r)-3-((8-Cyanoquinolin-5-yl)oxy)-2,2,4,4-tetramethylcyclobutyl)-4-(4-((4-(4-(2,4-dioxotetrahydropyrimidin-1(2H)-yl)-1H-pyrazolo[4,3-c]pyridin-1-yl)piperidin-1-yl)methyl)piperidin-1-yl)-3-fluorobenzamide] was run?
The Dmax was ≥ 50%.
